Source: patent US20260256728A1, “TREATMENT FOR ASYMPTOMATIC STARGARDT DISEASE PATIENTS” (priority 2024, published 2026)

Assay: TEASE-1 safety, adverse events

## [2H]C([2H])([2H])C(/C=C/C=C(C)/C=C/C1=C(C)CCCC1(C)C)=C\COC(C)=O [gildeuretinol acetate]
14 mg (N = 15)
  Patients experiencing event (%): Death: 1 (6.7)
  Patients experiencing event (%): Influenza: 0
  Patients experiencing event (%): Vulvovaginal candidiasis: 0
  Patients experiencing event (%): Wrist fracture: 0
  Patients experiencing event (%): Xanthelasma: 0
24 mg (N = 15)
  Patients experiencing event (%): Death: 0
  Patients experiencing event (%): Influenza: 1 (6.7)
  Patients experiencing event (%): Vulvovaginal candidiasis: 1 (6.7)
  Patients experiencing event (%): Wrist fracture: 0
  Patients experiencing event (%): Xanthelasma: 1 (6.7)
Crossover (N = 10)
  Patients experiencing event (%): Abdominal discomfort: 1 (10.0)
  Patients experiencing event (%): Abdominal distension: 0
  Patients experiencing event (%): Abdominal pain upper: 0
  Patients experiencing event (%): Abnormal dreams: 0
  Patients experiencing event (%): Alanine aminotransferase increased: 1 (10.0)
  Patients experiencing event (%): Alopecia: 0
  Patients experiencing event (%): Ankle fracture: 0
  Patients experiencing event (%): Arthralgia: 1 (10.0)
  Patients experiencing event (%): Arthritis: 1 (10.0)
  Patients experiencing event (%): Aspartate aminotransferase increased: 1 (10.0)
  Patients experiencing event (%): Back injury: 0
  Patients experiencing event (%): Back pain: 0
  Patients experiencing event (%): Blepharospasm: 1 (10.0)
  Patients experiencing event (%): Blood cholesterol increased: 0
  Patients experiencing event (%): Blood creatinine increased: 0
  Patients experiencing event (%): Blood iron decreased: 0
  Patients experiencing event (%): Blood pressure increased: 0
  Patients experiencing event (%): Blood triglycerides increased: 0
  Patients experiencing event (%): Bowel movement irregularity: 0
  Patients experiencing event (%): Bronchitis: 0
  Patients experiencing event (%): Cartilage injury: 0
  Patients experiencing event (%): Conjunctival laceration: 0
  Patients experiencing event (%): Conjunctivitis: 0
  Patients experiencing event (%): Constipation: 0
  Patients experiencing event (%): Cough: 0
  Patients experiencing event (%): Death: 0
  Patients experiencing event (%): Depression: 0
  Patients experiencing event (%): Diarrhoea: 1 (10.0)
  Patients experiencing event (%): Diplopia: 0
  Patients experiencing event (%): Dry eye: 0
  Patients experiencing event (%): Dry mouth: 0
  Patients experiencing event (%): Dry skin: 0
  Patients experiencing event (%): Ear discomfort: 0
  Patients experiencing event (%): Ear pain: 0
  Patients experiencing event (%): Eczema: 1 (10.0)
  Patients experiencing event (%): Electrocardiogram abnormal: 1 (10.0)
  Patients experiencing event (%): Erythema: 0
  Patients experiencing event (%): Eye irritation: 0
  Patients experiencing event (%): Eye pain: 0
  Patients experiencing event (%): Eye pruritus: 0
  Patients experiencing event (%): Face injury: 0
  Patients experiencing event (%): Faeces soft: 0
  Patients experiencing event (%): Fall: 0
  Patients experiencing event (%): Gastroenteritis: 1 (10.0)
  Patients experiencing event (%): Hair texture abnormal: 0
  Patients experiencing event (%): Hand fracture: 0
  Patients experiencing event (%): Headache: 0
  Patients experiencing event (%): Hordeolum: 0
  Patients experiencing event (%): Hypertension: 0
  Patients experiencing event (%): Hypobarism: 0
  Patients experiencing event (%): Hypothyroidism: 0
  Patients experiencing event (%): Hysterectomy: 0
  Patients experiencing event (%): Inflammation: 0
  Patients experiencing event (%): Influenza: 0
  Patients experiencing event (%): Insomnia: 0
  Patients experiencing event (%): Intracranial pressure increased: 0
  Patients experiencing event (%): Irritability: 0
  Patients experiencing event (%): Jaw operation: 0
  Patients experiencing event (%): Knee arthroplasty: 0
  Patients experiencing event (%): Laryngitis: 0
  Patients experiencing event (%): Lip swelling: 0
  Patients experiencing event (%): Low density lipoprotein increased: 0
  Patients experiencing event (%): Muscle spasms: 0
  Patients experiencing event (%): Muscle strain: 0
  Patients experiencing event (%): Musculoskeletal pain: 0
  Patients experiencing event (%): Nasopharyngitis: 1 (10.0)
  Patients experiencing event (%): Nausea: 0
  Patients experiencing event (%): Neck pain: 0
  Patients experiencing event (%): Nephrolithiasis: 1 (10.0)
  Patients experiencing event (%): Nerve compression: 0
  Patients experiencing event (%): Neuralgia: 0
  Patients experiencing event (%): Obsessive-compulsive disorder: 0
  Patients experiencing event (%): Oropharyngeal pain: 1 (10.0)
  Patients experiencing event (%): Osteoporosis: 0
  Patients experiencing event (%): Overall: 8 (80)
  Patients experiencing event (%): Pain: 0
  Patients experiencing event (%): Pain in extremity: 0
  Patients experiencing event (%): Pain in jaw: 0
  Patients experiencing event (%): Peripheral coldness: 0
  Patients experiencing event (%): Pharyngitis streptococcal: 0
  Patients experiencing event (%): Photophobia: 0
  Patients experiencing event (%): Photopsia: 0
  Patients experiencing event (%): Plantar fasciitis: 0
  Patients experiencing event (%): Pleurisy: 1 (10.0)
  Patients experiencing event (%): Pneumonia: 1 (10.0)
  Patients experiencing event (%): Premenstrual syndrome: 0
  Patients experiencing event (%): Punctate keratitis: 0
  Patients experiencing event (%): Pyrexia: 0
  Patients experiencing event (%): Radius fracture: 0
  Patients experiencing event (%): Rash: 1 (10.0)
  Patients experiencing event (%): Rotator cuff syndrome: 0
  Patients experiencing event (%): Sialoadenitis: 0
  Patients experiencing event (%): Sinus congestion: 0
  Patients experiencing event (%): Sinusitis: 0
  Patients experiencing event (%): Sjogren's syndrome: 0
  Patients experiencing event (%): Subdural haematoma: 0
  Patients experiencing event (%): Syncope: 0
  Patients experiencing event (%): Tendonitis: 0
  Patients experiencing event (%): Thoracic outlet syndrome: 0
  Patients experiencing event (%): Tongue dry: 0
  Patients experiencing event (%): Tooth abscess: 0
  Patients experiencing event (%): Tooth extraction: 0
  Patients experiencing event (%): Toothache: 0
  Patients experiencing event (%): Vision blurred: 1 (10.0)
  Patients experiencing event (%): Visual field defect: 1 (10.0)
  Patients experiencing event (%): Visual impairment: 0
  Patients experiencing event (%): Vitamin B12 deficiency: 0
  Patients experiencing event (%): Vitamin D decreased: 0
  Patients experiencing event (%): Vitreous floaters: 1 (10.0)
  Patients experiencing event (%): Vulvovaginal candidiasis: 0
  Patients experiencing event (%): Wrist fracture: 0
  Patients experiencing event (%): Xanthelasma: 0
In vivo
  association between treatment groups and frequency of adverse events: no association was observed
  changes by physical examination, electrocardiogram, vital signs, hematology, biochemistry and lipid panels: no changes were attributed to gildeuretinol acetate
